Drawing on patent publication US11040952B2, “Phthalazinone compound, method for preparation thereof, pharmaceutical composition thereof, and use thereof” (SHANGHAI INSTITUTE OF MATERIA MEDICA, CHINESE ACADEMY OF …, priority 2017, dated 2021), this text covers CC50 and IC50 for 23 compounds.

The nature of data set [1]: MTT assay for cytotoxicity. The class given is cell-based, Human. Conditions: human, HepG2.2.15 cells, half (50%) lethal concentration. As to the method:
(§1) Human hepatoblastoma cell line HepG2.2.15 stably transfected with full-length HBV (provided by Shanghai Institute of Materia Medica, Chinese Academy of Sciences)
(§2) HepG2.2.15 cells were cultured and passaged according to conventional methods. DMEM containing 10% (v/v) bovine serum and the selective antibiotic G418 was used as a medium, the cells were cultured in an incubator at 37° C. under 5% CO2 for 8 days (the medium was exchanged on the 4th day).
(§3) The test compounds were formulated with DMSO into a 40 mM stock solution, which was then prepared into a solution at the defined highest concentration using a DMEM medium containing 10% Hyclone™ Fetal Bovine Serum, followed by diluting the same; the positive drug was lamivudine, which was also prepared into a solution at the defined concentration with the DMEM medium containing 10% Hyclone™ Fetal Bovine Serum.
HepG2.2.15 cells were seeded at 5×10^3 cells/well in a 96-well plate, and cultured for eight days in the presence of the compounds according to the above method, and then 200 μl of the supernatant was taken out, followed by addition of the MTT solution. After 4 hours of culture, a lysate was added. After 12 hours of culture, the OD570 was measured on a microplate reader. By comparing with the absorbance of the control well, the percentage of viable cells was calculated, and CC50, the concentration required for the reduction of cell viability by 50%, was calculated.
On the technique in general: Tetrazolium dyes change colour on reduction, which living cells bring about.

For data set [2], the system named is HBV. Briefly: HBV DNA content in the supernatant of cell culture (real-time PCR). The class given is cell-based, hepatitis B virus (HBV). Conditions: Hepatitis B virus, HepG2.2.15, 192 h, inhibition of HBV DNA replication, HepG2.2.15 supernatant, 8 days. On the procedure: as §1, §2, §3
HepG2.2.15 cells were treated with compounds at different concentrations for 8 days (the medium was exchanged on the 4th day), and the supernatant was aspirated, and the HBV DNA contained in the mature virus particles in the supernatant was quantitated by using a real-time PCR method.
1) The supernatant DNA from a 96-well plate, 200 μl/well, was collected, wherein the contents in the duplicate wells were collected into a same EP tube, and centrifuged at 4000 rcf for 5 min, and the supernatant was collected;
2) 200 μl of the supernatant was added into a 1.5 ml EP tube, added with 20 μl of proteinase K and 200 μl of Buffer AL (Qiagen, DNeasy® Blood & Tissue Kit), vortexed to be mixed thoroughly, and incubated at 56° C. for 10 min;
3) 200 μl of ethanol was added and vortexed to be mixed thoroughly;
4) all the liquid obtained from step 3) was added into a DNeasy Mini spin column (Qiagen, DNeasy® Blood & Tissue Kit) placed in a 2 ml waste liquid collection tube, and centrifuged at 6000 rcf for 1 min, and the supernatant was discarded;
5) the DNeasy Mini spin column was placed in a new 2 ml waste liquid collection tube, added with 500 μl of Buffer AW1 (Qiagen, DNeasy® Blood & Tissue Kit), and centrifuged at 6000 rcf for 1 min, and the supernatant was discarded;
6) the DNeasy Mini spin column was placed in a new 2 ml waste liquid collection tube, added with 500 μl of Buffer AW2, (Qiagen, DNeasy® Blood & Tissue Kit), and centrifuged at 20000 rcf for 3 min, and the supernatant was discarded;
7) the DNeasy Mini spin column was placed in anew 1.5 ml EP tube, 50 μl of Buffer AE (Qiagen, DNeasy® Blood & Tissue Kit) was pipetted and directly applied onto the membrane of the DNeasy Mini spin column, which was then left at room temperature for 5 min, and centrifuged at 6000 rcf for 1 min to elute the DNA from the membrane, the DNeasy Mini spin column was discarded, and the DNA sample was collected and stored at −20° C.
1) Standard curve: 1e^7-1e^4 IU/ml, the sample amount was 1 μl, a blank well was set so as to check whether the reaction system is polluted or not;
2) 1 μl of a DNA sample was added in sequence;
3) Addition of enzyme and reaction buffer: two tubes of the reaction solution were first added into the enzyme, mixed well and centrifuged slightly, placed on ice, added with the sample, followed by addition of 19 μl of the enzyme reaction solution, wherein, during the addition, the DNA sample should be sure of not being touched to cause contamination;
4) the sample was sealed with a sealing film and centrifuged;
Stage 2: 10 cycles • Step 1: 93° C., 45 s • Step 2: 55° C., 1 min Stage 3: 45 cycles • Step 1: 93° C., 30 s • Step 2: 55° C., 45 s
Detection: data were collected after completing the step 2 (55° C., 45 s) of the stage 3.
The experimental data were processed by using the Origin software and IC50 was calculated.
In general terms: Real-time PCR tracks product formation cycle by cycle.

The compound `N#Cc1ccc(Cn2nc(-c3ccc(NC4CC4)nc3F)c3ccccc3c2=O)cc1` [IV-13] had a CC50 at 8 days in data set [1] of 78.5 µM. This compound also registered an IC50 in data set [2] of 3.8 µM.

The compound `CN(C)CCNc1ccc(-c2nn(Cc3ccc(C#N)cc3)c(=O)c3ccccc23)c(F)n1` [IV-14] displayed a half-maximal cytotoxic concentration (CC50) at 8 days in data set [1] of over 100 µM. This compound returned an IC50 in data set [2] of 1.5 µM.

As to `N#Cc1ccc(Cn2nc(-c3ccc(NC4COC4)nc3F)c3ccccc3c2=O)cc1` [IV-16], the midpoint of cytotoxicity in data set [1], the CC50 at 8 days, lay at 88.3 µM. For the same compound, the IC50 in data set [2] amounted to 1 µM.

Turning to `[2H]C(c1ccc(C#N)cc1)n1nc(-c2ccc(F)nc2F)c2ccccc2c1=O` (stereo not shown) [IV-17], the CC50 at 8 days in data set [1] was over 100 µM. The compound further showed an IC50 in data set [2] of 0.13 µM.

Consider `[2H]C([2H])(c1ccc(C#N)cc1)n1nc(-c2ccc(F)nc2F)c2ccccc2c1=O` [IV-18], for which the CC50 at 8 days in data set [1] is over 100 µM. This compound also gave an IC50 in data set [2] of 0.21 µM.

Compound `N#Cc1ccc(Cn2nc(-c3ccc(C4CC4)nc3F)c3ccccc3c2=O)cc1` [IV-19] showed a CC50 at 8 days in data set [1] of over 100 µM. In data set [2], this compound came in with an IC50 of 0.27 µM.

As for `N#Cc1ccc(Cn2nc(-c3ccc(CO)nc3F)c3ccccc3c2=O)cc1` [IV-20], the CC50 at 8 days in data set [1] is over 100 µM. This compound also displayed a half-inhibitory concentration (IC50) in data set [2] of 0.3 µM.

In turn, `CN(C)Cc1ccc(-c2nn(Cc3ccc(C#N)cc3)c(=O)c3ccccc23)c(F)n1` [IV-21] gave a CC50 at 8 days in data set [1] of over 100 µM. The compound further showed a half-maximal inhibitory concentration (IC50) in data set [2] of 1.3 µM.

For `COCc1ccc(-c2nn(Cc3ccc(C#N)cc3)c(=O)c3ccccc23)c(F)n1` [IV-22], the CC50 at 8 days in data set [1] is over 100 µM. This compound also gave an IC50 in data set [2] of 3.5 µM.

Take `CC(=O)OCc1ccc(-c2nn(Cc3ccc(C#N)cc3)c(=O)c3ccccc23)c(F)n1` [IV-23]: the CC50 at 8 days in data set [1] is over 100 µM. This compound registered an IC50 in data set [2] of 4.5 µM.

In data set [1], `N#Cc1ccc(Cn2nc(-c3ccc(CN4CCOCC4)nc3F)c3ccccc3c2=O)cc1` [IV-24] returned a CC50 at 8 days of over 100 µM. The same compound had an IC50 in data set [2] of 0.35 µM.

`N#Cc1ccc(Cn2nc(-c3ccc(NCC4CCOCC4)nc3F)c3ccccc3c2=O)cc1` [IV-25]: half-maximal cytotoxicity in data set [1] (CC50 at 8 days) was put at 54.1 µM. The half-maximal inhibitory concentration (IC50) in data set [2] was found to be 1.2 µM.

For `COCCNc1ccc(-c2nn(Cc3ccc(C#N)cc3)c(=O)c3ccccc23)c(F)n1` [IV-26], the CC50 at 8 days in data set [1] was over 100 µM. Moreover, the IC50 in data set [2] was found to be 0.43 µM.

`COCCNc1nc(F)c(-c2nn(Cc3ccc(C#N)cc3)c(=O)c3ccccc23)cc1Cl` [IV-27]: in data set [1], the CC50 at 8 days is over 100 µM. The compound also came in with an IC50 in data set [2] of 0.0142 µM.

Compound `COCCNc1ccc(-c2nn(Cc3ccc(Cl)cc3)c(=O)c3ccccc23)c(F)n1` [IV-28] came in with a CC50 at 8 days in data set [1] of 21.3 µM. Further, in data set [2], the IC50 was found to be 0.191 µM.

In turn, `COCCNc1nc(F)c(-c2nn(Cc3ccc(Cl)cc3)c(=O)c3ccccc23)cc1Cl` [IV-29] had a CC50 at 8 days in data set [1] of 26.6 µM. This compound gave an IC50 in data set [2] of 0.0439 µM.

`N#Cc1ccc(Cn2nc(-c3cc(Cl)c(N)nc3F)c3ccccc3c2=O)cc1` [IV-30] had a CC50 at 8 days in data set [1] of 10.2 µM. For the same compound, the IC50 in data set [2] was under 0.0977 µM.

Compound `COCCOc1ccc(-c2nn(Cc3ccc(C#N)cc3)c(=O)c3ccccc23)c(F)n1` [IV-31] gave a CC50 at 8 days in data set [1] of 109 µM. Besides, in data set [2], the IC50 was found to be 0.452 µM.

Take `COCCCNc1ccc(-c2nn(Cc3ccc(C#N)cc3)c(=O)c3ccccc23)c(F)n1` [IV-32]: the CC50 at 8 days in data set [1] is 43.7 µM. The IC50 in data set [2] was found to be 0.191 µM.

In data set [1], `COCCCNc1nc(F)c(-c2nn(Cc3ccc(C#N)cc3)c(=O)c3ccccc23)cc1Cl` [IV-33] showed a CC50 at 8 days of 181 µM. This compound showed an IC50 in data set [2] of under 0.0977 µM.

In turn, `CCOC(=O)CNc1ccc(-c2nn(Cc3ccc(C#N)cc3)c(=O)c3ccccc23)c(F)n1` [IV-34] showed a cytotoxic concentration (CC50) at 8 days in data set [1] of over 100 µM. The compound also came in with an IC50 in data set [2] of 15.7 µM.

Compound `CCOC(=O)CCCNc1ccc(-c2nn(Cc3ccc(C#N)cc3)c(=O)c3ccccc23)c(F)n1` [IV-35] had a CC50 at 8 days in data set [1] of over 100 µM. This compound also had an IC50 in data set [2] of 1.23 µM.

In data set [1], `CCOC(=O)CCCNc1nc(F)c(-c2nn(Cc3ccc(C#N)cc3)c(=O)c3ccccc23)cc1Cl` [IV-36] had a CC50 at 8 days of over 100 µM. In addition, it took 0.482 µM to reach half-maximal inhibition in data set [2] (IC50).

By CC50 is commonly meant the concentration that lowers cell viability or growth by half. Higher therefore signals lower toxicity to the cells. Usually IC50 stands for the concentration that gives 50% inhibition. Read a high IC50 as a need for much substance.
